Experimental data from ChEMBL document CHEMBL6115048, “Uncovering α-Selectivity for Liver X Receptor Agonists for Lipotoxic Cancer Therapies” (J Med Chem, 2025).

Assays:
[1] = system: Hepatocellular carcinoma organoid; experiment: Antiproliferative activity against C57BL/6 mouse Hepatocellular carcinoma organoids harboring myristoylated Akt1 and overexpressing Myc assessed as reduction in cell viability measured after 5 days in presence of sorafenib by Celltiter-glo assay; format: functional, tissue-based; details: Neoplasm, dose 1-5 µM, time 5.0 day
Hep 3B2 = experiment: Antiproliferative activity against human Hep3B cells assessed as reduction in cell viability measured after 5 days in presence of sorafenib by Celltiter-glo assay; format: functional, cell-based; details: for EC50: 120 h
[2] = biological target: T1, Oxysterols receptor LXR-alpha (Homo sapiens, UniProt Q13133); experiment: Agonist activity at GST-tagged LXRalpha LBD (unknown origin) measured after 6 hrs in presence of fluorescein-TRAP220/DRIP-2 by TR-FRET assay
T1 sequence (Q13133 whole entry): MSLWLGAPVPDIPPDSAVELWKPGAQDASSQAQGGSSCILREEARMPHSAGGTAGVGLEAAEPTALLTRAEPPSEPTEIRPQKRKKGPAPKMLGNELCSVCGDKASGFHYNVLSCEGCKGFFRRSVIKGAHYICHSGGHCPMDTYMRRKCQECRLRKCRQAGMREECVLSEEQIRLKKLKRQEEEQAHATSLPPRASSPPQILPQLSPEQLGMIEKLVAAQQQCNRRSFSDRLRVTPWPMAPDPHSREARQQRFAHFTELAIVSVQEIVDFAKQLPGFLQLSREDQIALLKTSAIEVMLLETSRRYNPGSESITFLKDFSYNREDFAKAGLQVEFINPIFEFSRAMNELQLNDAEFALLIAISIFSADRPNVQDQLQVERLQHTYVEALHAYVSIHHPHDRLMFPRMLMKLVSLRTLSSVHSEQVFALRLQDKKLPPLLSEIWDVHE

[3] = biological target: T2, Oxysterols receptor LXR-beta (Homo sapiens, UniProt P55055); experiment: Agonist activity at GST-tagged LXRbeta LBD (unknown origin) measured after 6 hrs in presence of fluorescein-TRAP220/DRIP-2 by TR-FRET assay
T2 sequence (P55055 whole entry): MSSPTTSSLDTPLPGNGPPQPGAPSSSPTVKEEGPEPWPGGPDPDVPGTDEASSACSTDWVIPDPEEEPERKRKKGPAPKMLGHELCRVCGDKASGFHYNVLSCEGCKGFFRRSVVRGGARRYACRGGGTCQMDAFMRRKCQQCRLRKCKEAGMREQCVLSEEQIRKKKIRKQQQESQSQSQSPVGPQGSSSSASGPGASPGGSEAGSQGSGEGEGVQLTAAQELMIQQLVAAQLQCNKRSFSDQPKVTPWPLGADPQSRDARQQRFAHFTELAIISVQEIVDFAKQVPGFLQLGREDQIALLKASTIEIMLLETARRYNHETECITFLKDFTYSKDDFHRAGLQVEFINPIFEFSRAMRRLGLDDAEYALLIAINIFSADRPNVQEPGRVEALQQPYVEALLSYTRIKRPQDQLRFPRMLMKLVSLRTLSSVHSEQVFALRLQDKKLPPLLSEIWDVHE

## O=S(=O)(c1ccccc1)N(CC(F)(F)F)c1ccc(C(O)(C(F)(F)F)C(F)(F)F)cc1
[1]
  Activity: Dose-dependent-effect

## O=C(O)Cc1cccc(OCCCN(Cc2cccc(C(F)(F)F)c2Cl)CC(c2ccccc2)c2ccccc2)c1
Hep 3B2
  EC50: 1900 nM
Hep 3B2; time 5.0 day
  Activity: Dose-dependent-effect
[1]
  Activity: Dose-dependent-effect

## CC(C)(C)OC(=O)NC1CCN(c2ccc(NC3=C(c4ccccc4)C(=O)N(Cc4ccccc4)C3=O)cc2)CC1
[2]
  EC50: Not_active
[3]
  EC50: Not_active

## CN1CCN(c2ccc(NC3=C(c4ccccc4)C(=O)N(Cc4ccccc4)C3=O)cc2)CC1
[2]
  EC50: Not_active
[3]
  EC50: Not_active

## COc1ccc(NC2=C(c3ccccc3)C(=O)N(Cc3ccccc3)C2=O)cc1
Hep 3B2
  EC50: 3800 nM
